Molecules are shown by their SMILES. Substitutions are numbered along the chain they refer to.

In assay [1] the target is T1, OpuAC (isolated SBD of OpuA) (Lactococcus lactis, UniProt Q7DAU8).
T1 sequence (Q7DAU8 319-573): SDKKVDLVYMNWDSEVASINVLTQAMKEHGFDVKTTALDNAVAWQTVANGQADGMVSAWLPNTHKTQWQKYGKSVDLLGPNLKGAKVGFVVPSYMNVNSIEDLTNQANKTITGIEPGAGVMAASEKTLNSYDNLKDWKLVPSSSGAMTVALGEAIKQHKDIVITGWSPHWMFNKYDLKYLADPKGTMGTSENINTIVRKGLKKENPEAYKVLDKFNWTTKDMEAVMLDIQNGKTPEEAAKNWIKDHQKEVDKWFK
The experiment in a line: intrinsic tryptophan fluorescence titration. Format: binding.

Assay [2] concerns the target T2, OpuAC (isolated SBD of OpuA) (Lactococcus lactis, UniProt Q7DAU8, K521C/S319C).
T2 sequence (Q7DAU8 319-573 S319C/K521C): T1 sequence (Q7DAU8 319-573) with S1C, K203C
The experiment in a line: intrinsic tryptophan fluorescence titration. It counts as binding.

Take `C[N+](C)(C)CC(=O)[O-]` [glycine betaine]: the figures for the Kd in assay [1] and in assay [2] were 4.4 ± 0.1 µM and 4.3 ± 0.4 µM, respectively.

As a reminder, the Kd is a measure of binding affinity in units of concentration. Lower therefore signals higher affinity.
